Activity calls are given as the source filed them.
Experiments:
[1] = target: T1, Trace amine-associated receptor 1 (Homo sapiens, UniProt Q96RJ0); assay: Counterscreen for agonists of the human trace amine associated receptor 1 (hTAAR1): Fluorescence-based cell-based high throughput dose response assay to identify hTAAR1 agonist that also desensitize TAAR1 receptor response.; format: functional
T1 sequence (Q96RJ0 whole entry): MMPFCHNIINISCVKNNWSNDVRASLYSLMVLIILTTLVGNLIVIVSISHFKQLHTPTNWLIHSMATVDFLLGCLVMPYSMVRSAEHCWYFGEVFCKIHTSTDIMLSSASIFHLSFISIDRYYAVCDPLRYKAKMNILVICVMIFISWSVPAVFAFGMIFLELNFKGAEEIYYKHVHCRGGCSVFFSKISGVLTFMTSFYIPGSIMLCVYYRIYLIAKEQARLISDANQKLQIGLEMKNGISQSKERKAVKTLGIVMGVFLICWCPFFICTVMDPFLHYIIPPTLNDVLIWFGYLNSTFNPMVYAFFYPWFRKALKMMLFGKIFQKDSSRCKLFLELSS

[2] = target: Induced myeloid leukemia cell differentiation protein Mcl-1 (Homo sapiens, UniProt Q07820); format: functional
Induced myeloid leukemia cell differentiation protein Mcl-1, sequence (Q07820 whole entry): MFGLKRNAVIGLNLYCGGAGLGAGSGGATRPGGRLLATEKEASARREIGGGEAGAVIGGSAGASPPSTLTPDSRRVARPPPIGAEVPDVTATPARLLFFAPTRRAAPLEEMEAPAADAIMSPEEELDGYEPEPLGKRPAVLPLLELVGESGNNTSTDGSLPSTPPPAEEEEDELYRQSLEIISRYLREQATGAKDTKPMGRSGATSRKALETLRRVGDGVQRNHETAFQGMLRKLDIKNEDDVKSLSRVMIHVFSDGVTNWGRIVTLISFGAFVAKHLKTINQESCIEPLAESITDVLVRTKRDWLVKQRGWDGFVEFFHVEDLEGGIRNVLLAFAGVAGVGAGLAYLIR

[3] = target: T1, Trace amine-associated receptor 1; assay: Fluorescence-based cell-based high throughput dose response assay to identify agonists of the human trace amine associated receptor 1 (TAAR1).; format: functional
cells [4] = format: functional, cell-based
cells [5] = format: functional, cell-based; remark: listed apart in the source
[6] = target: T2, Sentrin-specific protease 8 (Homo sapiens, UniProt Q96LD8); format: functional
T2 sequence (Q96LD8 whole entry): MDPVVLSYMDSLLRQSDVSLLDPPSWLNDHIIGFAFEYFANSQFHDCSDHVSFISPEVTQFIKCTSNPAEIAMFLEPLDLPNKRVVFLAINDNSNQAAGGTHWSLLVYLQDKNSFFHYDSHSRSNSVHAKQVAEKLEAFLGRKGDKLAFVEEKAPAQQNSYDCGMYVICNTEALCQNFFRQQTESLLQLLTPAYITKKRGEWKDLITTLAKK

[7] = target: T2, Sentrin-specific protease 8; format: functional; remark: listed apart in the source
[8] = target: T3, Small ubiquitin-related modifier 1 (Homo sapiens, UniProt P63165); assay: SUMO1 protein-protein binding blockers, potency – biochemical, FRET, dose response (AID 624383); format: functional; details: read-out: IC50_Mean
T3 sequence (P63165 whole entry): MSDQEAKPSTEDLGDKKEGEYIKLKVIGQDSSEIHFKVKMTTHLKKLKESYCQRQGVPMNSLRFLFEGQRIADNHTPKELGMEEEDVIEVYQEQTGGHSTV

[9] = target: T3, Small ubiquitin-related modifier 1; assay: SUMO1 protein interaction blockers, potency – biochemical, fluorescence polarization, uHTS hits, dose response (AID 624382); format: functional; details: read-out: IC50_Mean
[10] = Luminescence Cell-Based Dose Confirmation HTS to Identify Activators of 5'UTR Stem-Loop Driven Alpha-Synuclein mRNA Translation in H4 Neuroglioblastoma Cells. [Related pubchem assays: 1829 (Project Summary), 1814 (Primary HTS)]; format: functional
cells [11] = format: functional, cell-based; remark: listed apart in the source
[12] = system: Streptococcus sp. 'group A'; assay: Streptococcus pyogenes SK(-)GAS viability under kanamycin – luminescence, BacTiterGlo, confirmation, counter-screen for streptokinase expression inhibitor project, dose response (AID 1900); format: functional, organism-based
[13] = Luminescence Cell-Based Dose Response HTS to Identify Activators of Luciferase Translation or Activity in H4 […] Cells. [Related pubchem assays: 1829 (Project Summary), 1814 (Primary HTS)]; format: functional
[14] = target: T4, Nuclear receptor subfamily 0 group B member 1 (Homo sapiens, UniProt P51843); format: functional, cell-based;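 further: HEK293T cells transfected with SF-1 and DAX-1 plus StAR promoter luciferase reporter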
T4 sequence (P51843 whole entry): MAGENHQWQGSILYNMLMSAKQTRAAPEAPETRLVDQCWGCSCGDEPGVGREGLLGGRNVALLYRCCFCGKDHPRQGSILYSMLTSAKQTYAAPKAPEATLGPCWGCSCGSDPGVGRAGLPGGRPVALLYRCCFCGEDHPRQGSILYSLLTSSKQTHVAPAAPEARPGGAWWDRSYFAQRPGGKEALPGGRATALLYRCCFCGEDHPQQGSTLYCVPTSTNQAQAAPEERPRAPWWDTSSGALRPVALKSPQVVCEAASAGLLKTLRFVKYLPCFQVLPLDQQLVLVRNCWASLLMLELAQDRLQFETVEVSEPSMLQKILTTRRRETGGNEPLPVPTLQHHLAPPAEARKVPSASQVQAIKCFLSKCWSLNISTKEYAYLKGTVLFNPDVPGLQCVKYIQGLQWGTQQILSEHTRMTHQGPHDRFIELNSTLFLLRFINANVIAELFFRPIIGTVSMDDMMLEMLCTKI

H4 = assay: Luminescence Cell-Based Dose Response HTS to Identify Activators of 5'UTR Stem-Loop Driven Prion Protein mRNA Translation in H4 Neuroglioblastoma Cells. [Related pubchem assays: 1829 (Project Summary), 1814 (Primary HTS)]; format: functional; details: Homo sapiens
[15] = target: T5, Endoribonuclease toxin MazF (Escherichia coli K-12, UniProt P0AE70); assay: substrate-only fluorescence increase artefacts – biochemical, single-stranded RNase substrate, counter-screen for MazEF activator project, dose response (AID 588502); format: functional
T5 sequence (P0AE70 whole entry): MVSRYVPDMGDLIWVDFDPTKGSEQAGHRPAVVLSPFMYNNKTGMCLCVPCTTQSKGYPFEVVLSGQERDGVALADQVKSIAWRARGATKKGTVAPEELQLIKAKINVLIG

Streptococcus = assay: GAS UMAA2166 growth inhibition – luminescence, BacTiterGlo, counter-screen for streptokinase expression inhibitor project, dose response (AID 1915); format: functional, organism-based;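 further: potency for reduction of bacterial viability or growth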
[16] = target: T5, Endoribonuclease toxin MazF; assay: activation of MazEF endoribonuclease cleavage – biochemical, fluorescence, single-stranded RNA substrate, uHTS hits, dose response (AID 588481); format: functional
Albumin = Albumin (Bos taurus, UniProt P02769); assay: Counterscreen for inhibitors of T-cell receptor (TCR)-CD3 interaction: Fluorescence-based biochemical high throughput dose response assay to identify inhibitors of T-cell receptor (TCR)-CD3 interaction using a TAMRA-labeled BSA probe.; format: functional
Albumin, sequence (P02769 whole entry): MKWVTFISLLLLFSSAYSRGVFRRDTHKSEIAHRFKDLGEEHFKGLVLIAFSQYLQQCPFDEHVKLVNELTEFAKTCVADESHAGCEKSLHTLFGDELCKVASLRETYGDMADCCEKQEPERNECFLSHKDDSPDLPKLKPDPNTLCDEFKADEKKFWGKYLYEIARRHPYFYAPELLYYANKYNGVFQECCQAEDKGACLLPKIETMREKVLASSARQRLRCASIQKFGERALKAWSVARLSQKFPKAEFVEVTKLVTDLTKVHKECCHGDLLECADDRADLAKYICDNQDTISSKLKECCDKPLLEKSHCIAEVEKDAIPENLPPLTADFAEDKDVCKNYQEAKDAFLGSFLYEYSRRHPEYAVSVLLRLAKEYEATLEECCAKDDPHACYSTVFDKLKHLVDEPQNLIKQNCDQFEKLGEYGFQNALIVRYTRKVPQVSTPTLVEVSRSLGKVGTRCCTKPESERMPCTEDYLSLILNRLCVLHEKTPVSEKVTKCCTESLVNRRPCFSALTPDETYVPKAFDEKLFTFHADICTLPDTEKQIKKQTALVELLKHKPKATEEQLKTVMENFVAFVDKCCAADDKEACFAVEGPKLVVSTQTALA

[17] = target: T6, Probable nicotinate-nucleotide adenylyltransferase (Staphylococcus aureus (strain N315), UniProt P65502); format: functional, Staphylococcus aureus subsp. aureus N315; details: read-out: IC50_Mean;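 on IC50 Mean: confirmatory dose-response retesting of NadD inhibitor hits first found in an ultra-high-throughput screen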
T6 sequence (P65502 whole entry): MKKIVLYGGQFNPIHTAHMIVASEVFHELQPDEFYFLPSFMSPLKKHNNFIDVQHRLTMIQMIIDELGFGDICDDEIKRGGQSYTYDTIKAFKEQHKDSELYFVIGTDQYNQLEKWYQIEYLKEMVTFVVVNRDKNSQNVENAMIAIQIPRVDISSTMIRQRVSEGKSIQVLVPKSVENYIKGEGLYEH

NS3 = NS3 (Hepatitis C virus, UniProt A3EZJ3); assay: PubChem AID 2173; parameters: species or system Hepacivirus hominis
NS3, sequence (A3EZJ3 whole entry): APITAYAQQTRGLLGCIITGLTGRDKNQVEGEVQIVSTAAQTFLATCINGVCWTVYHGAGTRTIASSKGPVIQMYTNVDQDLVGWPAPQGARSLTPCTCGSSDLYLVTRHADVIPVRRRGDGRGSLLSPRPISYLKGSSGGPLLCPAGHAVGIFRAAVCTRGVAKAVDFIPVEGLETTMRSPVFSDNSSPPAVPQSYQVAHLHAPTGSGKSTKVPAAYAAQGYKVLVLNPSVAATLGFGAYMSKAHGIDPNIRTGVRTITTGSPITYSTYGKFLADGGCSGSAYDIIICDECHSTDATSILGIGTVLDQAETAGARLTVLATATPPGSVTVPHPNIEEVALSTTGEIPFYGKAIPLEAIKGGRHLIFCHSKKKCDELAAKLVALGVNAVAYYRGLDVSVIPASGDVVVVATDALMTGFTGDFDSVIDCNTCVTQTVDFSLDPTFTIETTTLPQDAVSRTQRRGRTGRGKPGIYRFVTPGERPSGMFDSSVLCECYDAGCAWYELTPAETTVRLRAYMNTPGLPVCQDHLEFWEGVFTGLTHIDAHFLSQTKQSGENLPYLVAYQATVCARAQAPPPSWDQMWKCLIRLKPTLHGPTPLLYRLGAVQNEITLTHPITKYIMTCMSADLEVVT

[18] = target: T7, Rac GTPase-activating protein 1 (Homo sapiens, UniProt Q9H0H5); assay: blockers of MgcRacGAP-driven Rac1 GTP hydrolysis – biochemical, ADP Hunter fluorescence, primary and confirmatory, confirmation (AID 624330); format: functional
T7 sequence (Q9H0H5 whole entry): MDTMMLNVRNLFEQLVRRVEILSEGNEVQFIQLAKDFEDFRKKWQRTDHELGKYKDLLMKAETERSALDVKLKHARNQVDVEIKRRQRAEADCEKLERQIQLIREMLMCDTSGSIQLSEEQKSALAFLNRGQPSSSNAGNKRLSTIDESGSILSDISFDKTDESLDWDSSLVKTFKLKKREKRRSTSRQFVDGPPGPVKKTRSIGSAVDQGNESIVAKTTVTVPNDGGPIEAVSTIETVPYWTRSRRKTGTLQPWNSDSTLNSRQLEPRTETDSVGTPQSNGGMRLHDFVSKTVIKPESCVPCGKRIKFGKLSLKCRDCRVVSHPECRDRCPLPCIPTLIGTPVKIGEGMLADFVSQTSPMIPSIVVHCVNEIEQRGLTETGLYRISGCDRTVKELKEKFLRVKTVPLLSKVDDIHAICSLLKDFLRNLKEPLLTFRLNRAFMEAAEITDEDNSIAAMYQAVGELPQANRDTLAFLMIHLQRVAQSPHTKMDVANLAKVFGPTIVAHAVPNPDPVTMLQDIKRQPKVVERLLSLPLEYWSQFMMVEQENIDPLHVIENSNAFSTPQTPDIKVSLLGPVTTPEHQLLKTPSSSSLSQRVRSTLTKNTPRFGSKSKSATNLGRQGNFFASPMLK

[19] = target: T8, Carboxy-terminal domain RNA polymerase II polypeptide A small phosphatase 1 (Homo sapiens, UniProt Q9GZU7); assay: CTDSP1 inhibitors, concentration-response, biochemical, absorbance readout, ultra-high-throughput screen actives (AID 540297); format: functional
T8 sequence (Q9GZU7 whole entry): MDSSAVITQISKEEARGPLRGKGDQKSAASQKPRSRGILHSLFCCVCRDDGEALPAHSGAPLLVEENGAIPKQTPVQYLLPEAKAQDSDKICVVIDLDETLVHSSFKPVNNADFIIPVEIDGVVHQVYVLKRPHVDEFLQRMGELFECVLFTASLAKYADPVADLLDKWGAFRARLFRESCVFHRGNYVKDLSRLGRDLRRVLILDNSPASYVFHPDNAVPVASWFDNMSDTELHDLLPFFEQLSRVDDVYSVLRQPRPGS

[20] = target: T9, Heat shock factor protein 1 (Mus musculus, UniProt P38532); assay: enhancement of HSF1-driven luciferase signal – cell-based, NIH3T3, luminescence, dose retest, confirmation (AID 435004); format: functional;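 further: stress induced by proteasome inhibitor MG132 added 30 min after compound; luciferase reporter driven by HSF1 response element in NIH3T3 cells; actives raise luminescence as potentiators of the MG132 stress response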
T9 sequence (P38532 whole entry): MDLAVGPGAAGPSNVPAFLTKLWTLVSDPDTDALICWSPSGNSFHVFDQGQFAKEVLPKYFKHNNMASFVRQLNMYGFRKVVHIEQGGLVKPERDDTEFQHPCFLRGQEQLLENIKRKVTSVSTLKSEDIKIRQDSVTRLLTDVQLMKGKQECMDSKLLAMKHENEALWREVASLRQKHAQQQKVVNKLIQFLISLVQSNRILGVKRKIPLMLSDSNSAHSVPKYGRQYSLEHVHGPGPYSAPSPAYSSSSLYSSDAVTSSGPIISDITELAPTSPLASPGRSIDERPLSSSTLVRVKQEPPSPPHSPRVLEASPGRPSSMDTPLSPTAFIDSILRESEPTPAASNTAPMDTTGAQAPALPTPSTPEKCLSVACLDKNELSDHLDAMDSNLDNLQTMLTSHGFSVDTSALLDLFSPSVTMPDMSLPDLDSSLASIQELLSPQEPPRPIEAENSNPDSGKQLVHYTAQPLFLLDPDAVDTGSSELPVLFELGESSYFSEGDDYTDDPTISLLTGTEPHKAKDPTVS

[21] = target: T6, Probable nicotinate-nucleotide adenylyltransferase; format: functional, Staphylococcus aureus subsp. aureus N315
[22] = target: DNA (cytosine-5)-methyltransferase 1 (Homo sapiens, UniProt P26358); assay: inhibition of DNA methylation by DNMT1 – biochemical, fluorescent molecular beacon, confirmation (AID 602386); format: functional
DNA (cytosine-5)-methyltransferase 1, sequence (P26358 whole entry): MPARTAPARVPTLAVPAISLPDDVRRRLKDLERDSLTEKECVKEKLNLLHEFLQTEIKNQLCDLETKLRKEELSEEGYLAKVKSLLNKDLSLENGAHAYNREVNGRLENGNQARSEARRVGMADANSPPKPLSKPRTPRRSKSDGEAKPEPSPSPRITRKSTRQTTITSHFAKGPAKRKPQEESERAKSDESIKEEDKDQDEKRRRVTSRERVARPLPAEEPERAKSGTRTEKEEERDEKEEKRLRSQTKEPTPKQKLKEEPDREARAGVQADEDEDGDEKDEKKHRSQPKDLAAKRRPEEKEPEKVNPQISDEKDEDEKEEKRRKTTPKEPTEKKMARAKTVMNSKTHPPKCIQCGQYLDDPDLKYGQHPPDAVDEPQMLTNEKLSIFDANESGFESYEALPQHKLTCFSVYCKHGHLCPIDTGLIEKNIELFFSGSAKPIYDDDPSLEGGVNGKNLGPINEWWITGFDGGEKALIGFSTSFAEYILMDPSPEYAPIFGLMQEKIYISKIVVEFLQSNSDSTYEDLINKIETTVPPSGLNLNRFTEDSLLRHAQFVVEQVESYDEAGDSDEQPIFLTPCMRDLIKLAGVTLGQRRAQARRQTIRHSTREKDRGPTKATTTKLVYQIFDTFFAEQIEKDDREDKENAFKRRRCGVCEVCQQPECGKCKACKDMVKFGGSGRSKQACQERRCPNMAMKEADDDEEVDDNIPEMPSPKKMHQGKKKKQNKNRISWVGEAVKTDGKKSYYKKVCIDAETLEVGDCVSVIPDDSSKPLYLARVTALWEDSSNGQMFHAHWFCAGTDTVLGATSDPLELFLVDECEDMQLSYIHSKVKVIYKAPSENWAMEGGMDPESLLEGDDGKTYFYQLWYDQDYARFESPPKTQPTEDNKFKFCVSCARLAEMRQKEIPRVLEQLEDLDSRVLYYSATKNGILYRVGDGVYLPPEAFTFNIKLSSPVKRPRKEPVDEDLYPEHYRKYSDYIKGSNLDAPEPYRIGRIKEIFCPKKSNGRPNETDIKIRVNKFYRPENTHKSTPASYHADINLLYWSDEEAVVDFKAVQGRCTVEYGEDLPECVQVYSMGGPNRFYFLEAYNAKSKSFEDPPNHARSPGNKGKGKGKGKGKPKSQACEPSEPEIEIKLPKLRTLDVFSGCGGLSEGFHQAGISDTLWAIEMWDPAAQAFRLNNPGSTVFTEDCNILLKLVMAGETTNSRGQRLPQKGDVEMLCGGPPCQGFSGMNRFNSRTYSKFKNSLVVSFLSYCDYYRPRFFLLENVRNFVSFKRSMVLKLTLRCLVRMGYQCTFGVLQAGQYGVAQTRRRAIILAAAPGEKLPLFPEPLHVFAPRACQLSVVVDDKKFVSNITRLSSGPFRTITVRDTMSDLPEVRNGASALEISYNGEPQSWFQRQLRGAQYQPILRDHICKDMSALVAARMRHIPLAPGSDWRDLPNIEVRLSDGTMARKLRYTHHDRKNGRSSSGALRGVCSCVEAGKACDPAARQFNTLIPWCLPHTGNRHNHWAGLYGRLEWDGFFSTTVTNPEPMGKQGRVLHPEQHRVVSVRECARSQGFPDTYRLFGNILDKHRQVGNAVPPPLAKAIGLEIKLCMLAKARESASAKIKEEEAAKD

Genome polyprotein = Genome polyprotein (dengue virus type 2, UniProt P29990); assay: flavivirus cap methylation enzyme inhibition – biochemical, confirmation dose response, primary screen (AID 588689); format: functional
Genome polyprotein, sequence (P29990 2492-3391 limits assumed): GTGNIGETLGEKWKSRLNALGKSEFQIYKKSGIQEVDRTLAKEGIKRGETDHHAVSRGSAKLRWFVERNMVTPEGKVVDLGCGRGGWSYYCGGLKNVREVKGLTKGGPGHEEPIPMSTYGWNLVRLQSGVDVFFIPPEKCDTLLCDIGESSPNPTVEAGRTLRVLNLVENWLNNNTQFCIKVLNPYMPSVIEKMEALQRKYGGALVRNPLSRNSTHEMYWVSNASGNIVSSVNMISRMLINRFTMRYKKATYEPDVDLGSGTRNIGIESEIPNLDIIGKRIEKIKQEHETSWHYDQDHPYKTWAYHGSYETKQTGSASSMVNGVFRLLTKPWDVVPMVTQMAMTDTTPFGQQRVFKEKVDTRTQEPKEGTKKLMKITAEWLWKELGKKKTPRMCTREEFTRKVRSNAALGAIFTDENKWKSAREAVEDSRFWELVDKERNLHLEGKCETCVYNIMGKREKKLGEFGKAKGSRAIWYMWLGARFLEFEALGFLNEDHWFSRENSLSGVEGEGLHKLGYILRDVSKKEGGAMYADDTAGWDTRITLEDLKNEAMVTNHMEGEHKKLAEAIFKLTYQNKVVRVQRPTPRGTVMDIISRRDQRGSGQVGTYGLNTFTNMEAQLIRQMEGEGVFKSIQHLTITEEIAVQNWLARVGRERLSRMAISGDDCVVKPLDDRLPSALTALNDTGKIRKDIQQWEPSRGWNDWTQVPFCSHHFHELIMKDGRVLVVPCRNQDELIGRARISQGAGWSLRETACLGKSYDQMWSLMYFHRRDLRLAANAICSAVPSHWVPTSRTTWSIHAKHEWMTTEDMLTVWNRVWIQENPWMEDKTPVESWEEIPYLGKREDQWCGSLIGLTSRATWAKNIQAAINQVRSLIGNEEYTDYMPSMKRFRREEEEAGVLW

[23] = target: Glucose-6-phosphate 1-dehydrogenase (Homo sapiens, UniProt P11413); assay: inhibition of Homo sapiens G6PD, dose series – biochemical, fluorescence, selectivity assay for P. falciparum G6PD inhibitor project, dose response (AID 504792); format: functional
Glucose-6-phosphate 1-dehydrogenase, sequence (P11413 whole entry): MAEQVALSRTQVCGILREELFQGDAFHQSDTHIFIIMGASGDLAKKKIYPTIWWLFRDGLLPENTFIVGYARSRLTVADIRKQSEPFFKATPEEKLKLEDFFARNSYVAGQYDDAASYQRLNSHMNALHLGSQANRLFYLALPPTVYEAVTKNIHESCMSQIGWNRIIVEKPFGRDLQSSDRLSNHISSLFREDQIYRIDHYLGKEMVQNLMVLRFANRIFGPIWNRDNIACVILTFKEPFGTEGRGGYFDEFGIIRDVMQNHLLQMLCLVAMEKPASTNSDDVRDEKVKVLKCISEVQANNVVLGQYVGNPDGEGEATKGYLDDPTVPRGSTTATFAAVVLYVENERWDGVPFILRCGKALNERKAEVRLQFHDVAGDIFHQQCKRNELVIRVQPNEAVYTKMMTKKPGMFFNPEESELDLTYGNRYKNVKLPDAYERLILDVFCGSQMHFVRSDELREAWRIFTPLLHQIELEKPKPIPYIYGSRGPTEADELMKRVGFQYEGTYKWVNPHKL

COCCn1nnnc1C(c1ccc(O)c(OC)c1)N1CCc2ccccc2C1 (stereo unspecified)
IC50 [1]: 3.75 µM (active) | IC50 [2]: 7.06 µM (active) | EC50 [3]: 0.695 µM (active) | IC50 (cells [4]): > 29.9 µM (inactive) | EC50 (cells [5]): > 29.9 µM (inactive)

COc1cccc(C2=NOC(C(=O)N3CCc4ccccc4C3)C2)c1 (stereo unspecified)
IC50 [6]: 9.21 µM (active) | IC50 [7]: 45.2 µM (active)

O=C(CC1C(=O)NCCN1CCCc1ccccc1)NCCc1ccccc1F (stereo unspecified)
IC50 [1]: 7.17 µM (active) | EC50 [3]: 1.71 µM (active) | IC50 (cells [4]): > 29.9 µM (inactive) | EC50 (cells [5]): > 29.9 µM (inactive)

O=C(CSc1ccc(-c2ccncc2)nn1)c1ccc(Cl)cc1
IC50 [8]: 12.1 µM (active) | IC50 [9]: > 66.6 µM (inactive)

Cc1ccc2nc(N3C(=O)C(O)=C(C(=O)c4ccco4)C3c3cccs3)sc2c1 (stereo unspecified)
EC50 [10]: > 120 µM (not active) | IC50 (cells [11]): > 67.5 µM (inactive) | EC50 [12]: 2.82 µM (active) | EC50 [13]: > 120 µM (not active) | IC50 [14]: > 67.5 µM (inactive) | EC50 (H4): > 120 µM (not active) | EC50 [15]: > 99 µM (inactive) | EC50 (Streptococcus): 4.98 µM (active) | EC50 [16]: > 99 µM (inactive)

C/C(=N/NC(=O)c1cccs1)c1cccc(N)c1
IC50 (cells [11]): > 67.6 µM (inactive) | IC50 [14]: > 67.6 µM (inactive)

Cc1cc([N+](=O)[O-])cc(/C=N/n2c(C)nc3ccccc3c2=O)c1O
EC50 [12]: 8.39 µM (active) | IC50 (Albumin): > 94 µM (inactive) | EC50 (Streptococcus): 7.71 µM (active)

Cc1ccc(/C=C/C(=O)Nc2ccc([N+](=O)[O-])c(NC(=O)/C=C/c3ccc(C)o3)c2)o1
IC50 [2]: 2.12 µM (active) | IC50 [17]: 15.3 µM (active) | IC50 (NS3): 41.3 µM (not active) | IC50 [18]: 165 µM (active) | IC50 [19]: 5.89 µM (active) | EC50 [20]: 228 µM (active) | IC50 [21]: 5.24 µM (active) | IC50 [22]: 7.18 µM (active) | IC50 (Genome polyprotein): > 100 µM (active) | IC50 [23]: > 80 µM (inactive)

Cc1ccc(C2(C)NC(=O)N(CC(=O)Nc3ccc4[nH]c(=O)[nH]c4c3)C2=O)cc1 (stereo unspecified)
IC50 [8]: 16.5 µM (active) | IC50 [9]: > 66.6 µM (inactive)

CC1=NN(c2ccc(C)cc2C)C(=O)C1C(c1ccccc1O)C1C(=O)N(c2ccc(C)cc2C)N=C1C (stereo unspecified)
IC50 [6]: 18.9 µM (active) | IC50 [7]: 7.5 µM (active)

Source: ChEMBL document CHEMBL1201862, “PubChem BioAssay data set” (2004)
